Measurements from US4360525A, “Dibenzazepine derivatives, pharmaceutical compositions containing them, and methods of use” (Sandoz Ltd., priority 1979, dated 1982).

Legend:
sleep/wake cycle = sleep/wake cycle in the rat (H. Kleinlogel); type: in vivo; conditions: 10 mg/kg p.o.
Method: Additionally, the compounds on administration to mice of from about 0.1 to about 10 mg/kg i.p. inhibit the hypermotility induced by 4,α-dimethyl-m-tyramine (H 77/77) in a test carried out according to the principles of J. Buus Lassen, Psychopharmacologia 37, 331-340 (1974). The compounds also increase the sleep phase II in the sleep/wake cycle in the rat carried out according to the principles of H. Kleinlogel et al, European J. Pharmacol. 33, 159-163, 1975, on administration of from […]. Results obtained are e.g. as follows:
Additionally the compounds of the invention are useful as sleep-inducing, sleep-promoting and sleep-prolonging agents, as indicated in standard tests. For example, in one test according to the principles of H. Kleinlogel, European J. Pharmacol. 33, 159-163 (1975) an increase in the sleep phase II and a decrease of the wake phase is observed after administration to rats of from 0.5 to 80 mg/kg p.o. animal body weight of the compounds.

[1] = system: spontaneous motor activity; assay: inhibition of spontaneous motor activity in mice (Caviezel and Baillod); type: in vivo; conditions: Mus musculus, po
Method: In particular, the compounds of the invention are useful as neuroleptic agents in the treatment of e.g. psychotic disturbances such as schizophrenia, as indicated in standard tests, e.g. by an inhibition of spontaneous motor activity in mice on p.o. administration of from about 1 to about 50 mg/kg animal body weight of the compounds in accordance with the principles of Caviezel and Baillod (Pharm. Acta Helv. (1958), 33, 465-484).

| SMILES | Sleep phase II % of control (sleep/wake cycle) | ED50 [1] [mg/kg] |
| --- | --- | --- |
| CN1CCN(C2=Nc3cc(Cl)ccc3Nc3ccccc32)CC1 [Clozapine] | 144 % of control |  |
| CN1CCC(N2Cc3cc(Cl)ccc3Sc3ccccc32)CC1 [Example 1, 2-Chloro-10-(1-methyl-piperidin-4-yl)-10,11-dihydro-dibenzo[b,f][1,4]thiazepine] | 131 % of control | 26 |
| CSc1ccc2c(c1)N(CCC1CCCCN1C)c1ccccc1S2 (stereo not shown) [Thioridazine] |  | 26 |
